For orientation: Tmax means the time from dosing to the highest level. The half-life is how long it takes for the measured level to halve. Usually solubility stands for how much of the substance goes into solution per volume. Usually Cmax stands for the maximum level reached in the sampled fluid or tissue. The AUC(0-t) is exposure summed from dosing to a finite time, without extrapolation to infinity. Higher therefore signals high exposure. By AUC(0-inf) is commonly meant the area under the concentration-time curve extrapolated to infinity. A low value points to less exposure.

Here are results for 1 compound from ChEMBL document CHEMBL4613299, “Optimization of Indazole-Based GSK-3 Inhibitors with Mitigated hERG Issue and In Vivo Activity in a Mood Disorder Model” (ACS Med Chem Lett, 2020).

Data set [1] in a line: Tmax in CD1 mouse at 10 mg/kg, ip measured up to 7 hrs by LC-MS/MS analysis. The class given is ADME, organism-based. As to conditions: in vivo.
The nature of data set [2]: Half life in CD mouse pooled liver microsomes at 10 uM incubated in shaking water bath measured up to 60 mins in presence of NADPH by HPLC-MS/MS analysis. The class given is ADME, Microsome. In general terms: Microsomes from liver hold many membrane-bound enzymes, among them those of drug oxidation.
Data set [3] is described as follows: Half life in CD1 mouse at 10 mg/kg, ip measured up to 7 hrs by LC-MS/MS analysis. It is filed as ADME, organism-based. As to conditions: in vivo.
The nature of data set [4]: Half life in human pooled liver microsomes at 10 uM incubated in shaking water bath measured up to 60 mins in presence of NADPH by HPLC-MS/MS analysis. It is filed as ADME, Microsome.
A short description of data set [5]: Aqueous solubility of compound in PBS buffer at 200 uM and pH 7.4 incubated for 24 hrs under shaking condition by chromatographic analysis. It is filed as physicochemical.
Data set [6] is described as follows: Cmax in plasma of CD1 mouse at 10 mg/kg, ip measured up to 7 hrs by LC-MS/MS analysis. The class given is ADME, organism-based. Details: dose 10 mg/kg, route intraperitoneal.
Data set [7] can be described thus: AUC (0 to t) in CD1 mouse at 10 mg/kg, ip measured up to 7 hrs by LC-MS/MS analysis. To be noted: in vivo. It is filed as ADME, organism-based. More on the design: time < 7 hr, dose 10 mg/kg, route intraperitoneal.
Data set [8] in a line: Cmax in brain of CD1 mouse at 10 mg/kg, ip measured up to 7 hrs by LC-MS/MS analysis. Details: dose 10 mg/kg, route intraperitoneal. The class given is ADME, organism-based.
Data set [9] can be described thus: AUC (0 to infinity) in CD1 mouse at 10 mg/kg, ip measured up to 7 hrs by LC-MS/MS analysis. To be noted: in vivo. The class given is ADME, organism-based. Details: dose 10 mg/kg, time infinity, route intraperitoneal.

In brackets after ≈: the same amount, converted by molar mass. A value given as a limit tells only on which side of the number the result lay.

In the case of `O=C(NCC1CCOCC1)c1n[nH]c2ccc(-c3cncc(CO)c3)cc12`, in data set [1], the Tmax stood at 30 min. Moreover, the half-life at 10 µM in data set [2] and in data set [4] was > 60 min throughout. In [3], this compound had a half-life of 120 min. Besides, in data set [5], the solubility at 24 h, 200 µM stood at 200 µM (≈ 73.3 µg/mL). Also, the Cmax in data set [6] turned out to be 949 ng/mL; in data set [8], 21.1 ng/g. Further, in data set [7], the exposure AUC(0-t) at 7 h is 781 ng·h/mL. Moreover, in data set [9], the total exposure AUC(0-inf) was 791 ng·h/mL.
